Like-named read-outs stand apart in the source and are kept apart here.
Key:
L. major [1] = assay: ChEMBL dataset of pIC50 values against L. major used for the RF model (Table S1); type: cell-based, Leishmania major; note: call rule not given here
Source text: From the ChEMBL database (https://www.ebi.ac.uk/chembl/, accessed on 10 January 2021), we selected a diverse set of 1085 structures that were initially classified according to their predicted activity against L. major.
Excluding these structures minimized the differences in activity values resulting from errors and differences in experimental protocols. […] Standardizer software [JChem, version 16.11.28 (2016), calculation module developed by ChemAxon, https://www.chemaxon.com/, accessed on 20 January 2021] was used to canonize all simplified molecular-input line-entry system (SMILES) codes. After duplicate structures were removed, those with higher pIC50 values were eliminated, facilitating the generation of more restrictive models.

L. major [2] = tested on: L. major; set-up: method as in ChEMBL; conditions: ref ChEMBL, cited from earlier work
[3] = Active/Inactive class assigned to ChemBL structures for Random forest model construction (Table S1)
[4] = ChemBL structures with pIC50 values used for Random forest model construction (Table S1)
[5] = Active/Inactive class assigned to the ChEMBL pIC50 value for Random forest model construction, ref ChEMBL
[6] = ChemBL structures with pIC50 values used for Random forest model construction, L. major

Row | SMILES | Outcome (L. major [1]; [3]) | pIC50 Value (L. major [2]; [4]) | Outcome (L. major [1]; [5]) | pIC50 Value (L. major [2]; [6])
1 | CC(=O)C1=C(CNc2ccc(C(=O)/C=C/c3cccc([N+](=O)[O-])c3)cc2)N(C)C(=O)NC1c1ccccc1 (stereo not drawn) [CHEMBL3786374] | Active | 5.88 |  | 
2 | COC(=O)C1=C(C)NC(C)=C(C(=O)OCCN(C)Cc2ccccc2)C1c1cccc([N+](=O)[O-])c1 (stereo not drawn) [CHEMBL1484] |  |  | Inactive | 4.66
3 | CC(Cl)C(=O)N1c2ccccc2Oc2ccccc21 (stereo not drawn) [CHEMBL3759769] |  |  | Inactive | 4.00
4 | Cc1ccc2c(n1)[nH]c1ccccc12 [CHEMBL1255761] |  |  | Inactive | 4.01
5 | CNc1ccc(Nc2c3ccccc3nc3ccccc23)cc1 [CHEMBL415467] | Active | 5.82 |  | 
6 | COc1ccccc1-c1nnc(-c2ccc(C(=O)N/N=C/c3ccccc3F)cc2)o1 [CHEMBL4060698] |  |  | Active | 5.29
7 | Cc1ccc(C2(c3ccc(C)cc3)C(=O)N(c3ccc(Cl)cc3)C2c2cn(C)c3ccccc23)cc1 (stereo not drawn) [CHEMBL2071567] | Active | 5.94 |  | 
8 | O=C(c1ccc(Br)s1)N1CCN(c2nnc(-c3ccc([N+](=O)[O-])s3)s2)CC1 [CHEMBL518866] |  |  | Inactive | 4.61
9 | O=C(CCl)N1c2ccccc2Sc2ccccc21 [CHEMBL1651446] |  |  | Active | 5.03
10 | Cc1ccc(Cl)cc1Nc1ncnc2ccc([N+](=O)[O-])cc12 [CHEMBL3758550] |  |  | Inactive | 4.35
11 | COc1cc2c(c(OC)c1)C(C)N(c1ccc(OC)c3c(OC)cc(C)cc13)[C@@H](C)C2 (stereo partly drawn) [CHEMBL479849] |  |  | Inactive | 4.19
12 | COc1cc(OC)c2c(C)[n+](-c3ccc4ccccc4c3)c(C)cc2c1.F[B-](F)(F)F [CHEMBL479838] | Active | 5.47 |  | 
13 | COc1cc(OC)c2c(C)[n+](-c3ccc(C(C)(C)C)cc3)c(C)cc2c1.F[B-](F)(F)F [CHEMBL516763] | Active | 5.57 |  | 
14 | CCCCN1CSC(=S)N(C(C)c2ccccc2)C1 (stereo not drawn) [CHEMBL4287541] |  |  | Inactive | 4.67
15 | COc1ccc(/C=N\NC(N)=S)cc1OCc1cn(CC(=O)c2ccccc2)nn1 [CHEMBL4171583] | Active | 5.36 |  | 
16 | C/C(C=O)=C\CC/C(C)=C/Cc1cc(O)ccc1O [CHEMBL257343] |  |  | Inactive | 4.57
17 | C=C[C@H]1CN2CCc3c([nH]c4ccccc34)[C@@H]2C[C@@H]1C(/C=C/OC)C(=O)OC (stereo partly drawn) [CHEMBL3752140] | Active | 5.52 |  | 
18 | COc1cc(OC)c2c(C)[n+](-c3ccc(C)cc3C)c(C)cc2c1.F[B-](F)(F)F [CHEMBL482395] | Active | 5.48 |  | 
19 | CC[C@H](CO)Nc1nc(NCc2cccc(OC)c2O)c2ncn(C(C)C)c2n1 [CHEMBL2349189] |  |  | Inactive | 4.01
20 | C/C(=N/NC(N)=S)c1ccc(OCc2cn(-c3ccc(S(N)(=O)=O)cc3)nn2)cc1 [CHEMBL4177394] |  |  | Active | 5.08
21 | Cc1ccc2cc(C3CC(c4ccsc4)=NN3)c(Cl)nc2c1 (stereo not drawn) [CHEMBL2236135] | Active | 5.54 |  | 
22 | CC1=N[C@H](C)Cc2c(-c3ccc(Cl)cc3)ccc(O)c21 [CHEMBL1275824] |  |  | Inactive | 4.00
23 | CC1(C)Cc2c(Br)ccc(O)c2C=N1 [CHEMBL1275726] |  |  | Inactive | 4.00
24 | O=[N+]([O-])c1ccc2ncnc(Nc3ccccc3Cl)c2c1 [CHEMBL3758623] |  |  | Active | 5.19

Row | SMILES | Outcome (L. major [1]; [3]) | pIC50 Value (L. major [2]; [4]) | Outcome (L. major [1]; [5]) | pIC50 Value (L. major [2]; [6])
25 | Nc1ccc(Nc2c3ccccc3nc3ccccc23)cc1 [CHEMBL289352] | Active | 5.68 |  | 
26 | Cc1ccc(Nc2ncnc3ccc([N+](=O)[O-])cc23)cc1 [CHEMBL3759143] |  |  | Inactive | 4.62
27 | NP(=O)(OCc1cccc([N+](=O)[O-])c1)N(CCCl)CCCl (stereo not drawn) [CHEMBL1256964] |  |  | Inactive | 4.52
28 | O=C(CCCCl)N1c2ccccc2Oc2ccc(Cl)cc21 [CHEMBL3759213] |  |  | Inactive | 4.00
29 | Cn1cc(/C=N/C(c2ccccc2)c2ccccc2)c2ccccc21 [CHEMBL2071556] | Active | 5.73 |  | 
30 | Cc1cc2ccc(-c3c(C)cc(O)c4c(O)cccc34)c(O)c2c(C)n1 [CHEMBL222338] |  |  | Inactive | 4.00
31 | COc1ccc(CNC(=N)c2ccc(N3CCN(c4nnc(-c5ccc([N+](=O)[O-])o5)s4)CC3)cc2)cc1.Cl [CHEMBL1783207] |  |  | Inactive | 4.10
32 | COc1ccc2c(=O)c(C(=O)O)csc2c1 [CHEMBL1255798] |  |  | Inactive | 4.00
33 | C/C(C=O)=C\CCC(C)(O)/C=C\c1cc(O)ccc1O (stereo not drawn) [CHEMBL255316] |  |  | Inactive | 4.04
34 | O=[N+]([O-])c1ccc2nc(-c3ccccc3)[nH]c2c1 [CHEMBL1164403] | Active | 5.48 |  | 
35 | Cc1ccsc1C1=NNC(c2cc3cccc(C)c3nc2Cl)C1 (stereo not drawn) [CHEMBL2235718] | Active | 5.64 |  | 
36 | CC(=O)CCCCCCCCCCCC[C@H]1CC[C@@H](O)[C@@H](C)N1 [CHEMBL249464] |  |  | Inactive | 4.12
37 | O=[N+]([O-])c1ccc(-c2nc3ccc([N+](=O)[O-])cc3[nH]2)cc1 [CHEMBL1483847] | Active | 5.58 |  | 
38 | C=C[C@H](/C=C\c1ccc(O)cc1)c1ccc(O)cc1 [CHEMBL451713] |  |  | Inactive | 4.92
39 | CCC/C=C/C=C/c1nc2cccc(OC)c2n2cccc12 [CHEMBL3260213] | Active | 5.41 |  | 
40 | O=C(/C=C/c1ccc(-n2ccnc2)cc1)c1ccc(F)c(F)c1 [CHEMBL569571] | Active | 5.54 |  | 
41 | Cc1ccc2cc(C3CC(c4ccc(I)s4)=NN3)c(Cl)nc2c1 (stereo not drawn) [CHEMBL2235716] | Active | 5.71 |  | 
42 | Cn1cc(C2N(c3ccc(Cl)cc3)C(=O)C2(c2ccccc2)c2ccccc2)c2ccccc21 (stereo not drawn) [CHEMBL2071563] | Active | 5.78 |  | 
43 | c1ccc(-c2nc3cnccn3c2-c2ccncc2)cc1 [CHEMBL3634356] |  |  | Inactive | 4.70
44 | O=[N+]([O-])c1ccc2nc(-c3ccc(F)cc3)[nH]c2c1 [CHEMBL2297902] | Active | 5.52 |  | 
45 | O=C(/C=C/c1ccc(-n2ccnc2)cc1)c1ccccc1Br [CHEMBL569130] | Active | 5.61 |  | 
46 | COc1ccccc1C(=O)N/N=C/c1ccc(Cl)cc1 [CHEMBL2382045] |  |  | Inactive | 4.16
47 | CCCCCCNc1ccc(Nc2c3ccc(Cl)cc3nc3ccc(OC)cc23)cc1 [CHEMBL420434] | Active | 6.70 |  | 
48 | O=[N+]([O-])c1ccc(-c2nnc(NCc3cn(Cc4ccccc4F)nn3)s2)o1 [CHEMBL1951523] |  |  | Inactive | 4.72

Reference: PMC8196580, “Identification of Kaurane-Type Diterpenes as Inhibitors of Leishmania Pteridine Reductase I” (Molecules, 2021)
